Reference: US20110071197A1, “BIS-ARYL COMPOUNDS FOR USE AS MEDICAMENTS” (priority 2008, published 2011)

These compounds were tested against T1, Recombinant human LTC4 synthase (Homo sapiens, UniProt Q16873) (assay: LTC4 synthase in vitro assay (HTRF detection of LTC4)). Settings: compound concentration 1 μM; HTRF method.
T1 construct: made in house; host or cells: Pichia pastoris
T1 sequence (Q16873 1-150): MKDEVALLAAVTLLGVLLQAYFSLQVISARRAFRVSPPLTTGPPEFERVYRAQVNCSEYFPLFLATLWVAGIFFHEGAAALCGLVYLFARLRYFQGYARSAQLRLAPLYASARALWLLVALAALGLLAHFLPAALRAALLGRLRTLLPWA
Format: biochemical
Procedure: Alternatively HTRF detection of LTC4 can be used:
In the assay, LTC4 synthase catalyses the reaction where the substrate LTA4 is converted to LTC4. Recombinant human LTC4 synthase is expressed in Piccia pastoralis and the purified enzyme is dissolved in 25 mM Tris-buffer pH 7.8 supplemented with 0.1 mM glutathione (GSH) and stored at −80° C. The assay is performed in phosphate buffered saline (PBS) pH 7.4 and 5 mM GSH in 384-well plates.
The following is added chronologically to each well: • 1. 48 μl LTC4 synthase in PBS with 5 mM GSH. The total protein concentration in this solution is 0.5 μg/ml. • 2. […] Incubation of the plate at room temperature for 10 minutes. • 4. 1 μl LTA4 (final conc. 2.5 μM). • 5. Incubation of the plate at room temperature for 5 minutes. • 6. 10 μl of the incubation mixture is analysed using homogeneous time resolved fluorescent (HTRF) detection.

| Compound | % inh. |
| --- | --- |
| O=C(Cc1ccc(Cl)cc1)Nc1ccc(Oc2ccc(NC(=O)c3ccc(C(F)(F)F)cc3)c(C(=O)O)c2)cc1 [8:7, 5-[(4-(2-(4-chlorophenyl)acetyl-amino)phenoxy)]-2-(4-trifluoro-methylbenzoylamino)benzoic acid] | 64 (1 μM) % |

Same assay, conditions: compound concentration 3 μM; HTRF method

| inhibition at 3 µM [%] | Compound | % inh. |
| --- | --- | --- |
| 89 | CCCCc1ccc(C(=O)Nc2ccc(Oc3ccc(NC(=O)c4ccccc4)cc3)cc2C(=O)O)cc1 [8:8, 5-(4-benzoylaminophenoxy)-2-(4-butylbenzoylamino)benzoic acid] | – |
| – | O=C(Nc1ccc(Oc2ccc(NC(=O)c3ccc(Cl)c(Cl)c3)c(C(=O)O)c2)cc1C(=O)O)c1ccc(F)c(F)c1 [1:8, 5-[3-carboxy-4-(3,4-difluorobenz-amido)phenyloxy]-2-(3,4-dichloro-benzamido)benzoic acid] | 99 (3 μM) % |

Same assay, conditions: total concentration of title compound in the assay 10 μM; HTRF method

| inhibition at 10 µM [%] | Compound | % inh. [%] |
| --- | --- | --- |
| 99 | COc1ccc(S(=O)(=O)N(C)c2ccc(Oc3ccc(NC(=O)c4ccc(Cl)cc4)c(C(=O)O)c3)cc2)cc1 [11:13, 2-(4-chlorobenzoylamino)-5-{4-[(4-methoxybenzenesulfonyl)-methylamino]phenoxy}benzoic acid] | – |
| 65 | O=C(Nc1ccc(Oc2ccc([N+](=O)[O-])c(C(=O)O)c2)cc1C(=O)O)c1ccccc1 [3:1, 2-benzamido-5-(3-carboxy-4-nitrophenoxy)benzoic acid] | – |
| 98 | CCCCc1ccc(S(=O)(=O)Nc2ccc(Sc3ccc(NS(=O)(=O)c4ccc(CCCC)cc4)c(C(=O)O)c3)cc2)cc1 [14:3, 2-(4-butyl-benzenesulfonyl-amino)-5-[4-(4-butyl-benzen-sulfonylamino)phenyl-sulfanyl]benzoic acid] | – |
| 97 | O=C(Nc1ccc(Oc2ccc(NS(=O)(=O)c3ccc(C(F)(F)F)cc3Cl)cc2)cc1C(=O)O)c1ccc(C(F)(F)F)cc1 [11:2, 5-[4-(2-chloro-4-trifluoromethyl-benzenesulfonylamino)phenoxy]-2-(4-trifluoromethylbenzoyl-amino)benzoic acid] | – |
| 93 | O=C(Nc1ccc(Oc2ccc(NC(=O)c3ccccc3)c(C(=O)O)c2)cc1C(=O)O)c1ccccc1 [4:2, 5-[3-carboxy-4-benzamido-phenyloxy]-2-benzamidobenzoic acid] | – |
| 99 | O=C(O)c1cc(Oc2ccc(Nc3ccc(F)c(F)c3)c(C(=O)O)c2)ccc1Nc1ccc(C(F)(F)F)nc1 [1:5, 5-[3-carboxy-4-(3,4-difluoro-phenylamino)phenyloxy]-2-(6-trifluoromethylpyridin-3-yl-amino)-benzoic acid] | – |
| 99 | CCCCc1ccc(S(=O)(=O)N(C)c2ccc(Oc3ccc(NC(=O)c4ccc(C)cc4)c(C(=O)O)c3)cc2)cc1 [11:5, 5-{4-[(4-butyl-benzenesulfonyl)-methylamino]phenoxy}-2-(4-methylbenzoylamino)benzoic acid] | – |
| 99 | O=C(Nc1ccc(Oc2ccc(NC(=O)c3cccc(Cl)c3)c(C(=O)O)c2)cc1C(=O)O)c1cccc(Cl)c1 [4:4, 5-[3-carboxy-4-(3-chlorobenzamido)phenyloxy]-2-(3-chlorobenzamido)benzoic acid] | – |
| 100 | O=C(O)c1cc(Oc2ccc(Nc3ccc4occc4c3)c(C(=O)O)c2)ccc1Nc1ccc(F)c(F)c1 [1:4, 5-[3-carboxy-4-(3,4-difluoro-phenylamino)phenyloxy]-2-(benzofuran-5-ylamino)benzoic acid] | – |
| 98 | O=C(O)c1cc(Sc2ccc(Nc3ccc(Cl)cc3)cc2)ccc1Nc1ccc(Cl)cc1 [Example 14:1, 2-(4-chlorophenylamino)-5-[4-(4-chlorophenylamino)-phenylsulfanyl]benzoic acid] | – |
| 95 | COc1ccc(S(=O)(=O)N(C)c2ccc(Oc3ccc(NC(=O)c4ccccc4Cl)c(C(=O)O)c3)cc2)cc1 [11:22, 2-(2-Chloro-benzoylamino)-5-{4-[(4-methoxybenzenesulfonyl)-methylamino]phenoxy}benzoic acid] | – |

The next lines start with the compound.

| Compound | inhibition at 10 µM [%] | % inh. [%] |
| --- | --- | --- |
| O=C(O)Cc1cc(Oc2ccc(NC(=O)c3ccc(C(F)(F)F)cc3F)c(C(=O)O)c2)ccc1NC(=O)c1cccc(Cl)c1 [6:4, 5-[3-carboxymethyl-4-(3-chloro-benzoylamino)-phenoxy]-2-(2-fluoro-4-trifluoromethylbenzoyl-amino)benzoic acid] | 96 | – |
| CCCCOc1ccc(S(=O)(=O)Nc2ccc(Oc3ccc(S(=O)(=O)Nc4ccc(F)c(F)c4)cc3)cc2C(=O)O)cc1 [25:3, 2-(4-Butoxybenzenesulfonyl-amino)-5-[4-(3,4-difluorophenyl-sulfamoyl)phenoxy]benzoic acid] | 100 | – |
| COc1ccc(S(=O)(=O)N(C)c2ccc(Oc3ccc(NC(=O)c4ccccc4OC(F)(F)F)c(C(=O)O)c3)cc2)cc1 [11:19, 5-{4-[(4-Methoxy-benzenesulfonyl)-methyl-amino]-phenoxy}-2-(2-trifluoromethoxy-benzoylamino)-benzoic acid] | 97 | – |
| 2-(2,3-dichlorobenzylamino)-5-{4-[(4-methoxybenzene-sulfonyl)methyl-amino]-phenoxy}benzoic acid [Example 11:12] | – | 92 |
| CC(C)(C)c1ccc(C(=O)Nc2ccc(Oc3ccc(NC(=O)c4ccc(Cl)cc4Cl)c(C(=O)O)c3)cc2)cc1 [Example 8:1, 5-(4-(4-tert-butylbenzamido)-phenoxy)-2-(2,4-dichlorobenz-amido)benzoic acid] | – | 100 |
| CCCCc1ccc(C(=O)Nc2ccc(Oc3ccc(NC(=O)c4cc(OC)cc(OC)c4)cc3)cc2C(=O)O)cc1 [8:9, 2-(4-butylbenzoylamino)-5-[4-(3,5-dimethoxybenzoylamino)-phenoxy]benzoic acid] | 88 | – |
| CCCCOc1ccc(S(=O)(=O)Nc2ccc(Oc3cccc(C(=O)NS(=O)(=O)c4ccc(F)c(F)c4)c3)cc2C(=O)O)cc1 [20:5, 2-(4-Butoxy-benzenesulfonylamino)-5-[3-(3,4-difluoro-benzenesulfonyl-aminocarbonyl)-phenoxy]-benzoic acid] | 97 | – |
| CCCCOc1ccc(S(=O)(=O)Nc2ccc(Oc3cccc(NCc4cccc(F)c4F)c3)cc2C(=O)O)cc1 [23:1, 2-(4-Butoxybenzenesulfonylamino)-5-[3-(2,3-difluorobenzylamino)-phenoxy]benzoic acid] | 100 | – |
| CCCCOc1ccc(S(=O)(=O)Nc2ccc(Oc3cccc(NCc4cccc(Cl)c4Cl)c3)cc2C(=O)O)cc1 [23:3, 2-(4-Butoxybenzenesulfonylamino)-5-[3-(2,3-dichlorobenzylamino)-phenoxy]benzoic acid] | 98 | – |
| 5-{4-[(4-methoxybenzene-sulfonyl)methylamino]-phenoxy}-2-(4-trifluoromethyl-benzoylamino)benzoic acid [11:3] | – | 98 |
| Cc1c(F)cccc1S(=O)(=O)Nc1ccc(Oc2ccc(N(C)C(=O)c3ccc(OC(C)C)cc3)c(C(=O)O)c2)cc1 [11:11] | – | 72 |
| O=C(O)Cc1cc(Oc2ccc(NC(=O)c3ccc(C(F)(F)F)cc3F)c(C(=O)O)c2)ccc1NC(=O)c1cc(F)c(Cl)cc1F [6:5, 5-[3-carboxy-methyl-4-(4-chloro-2,5-difluoro-benzoylamino)-phenoxy]-2-(2-fluoro-4-trifluoro-methylbenzoylamino)-benzoic acid] | – | 96 |
| CCCCOc1ccc(S(=O)(=O)NC(=O)c2cccc(Oc3ccc(Nc4ccc(Cl)cc4)c(C(=O)O)c3)c2)cc1 [20:9, 5-[3-(4-Butoxy-benzenesulfonyl-aminocarbonyl)-phenoxy]-2-(4-chloro-phenylamino)-benzoic acid] | 100 | – |
| COc1ccc(S(=O)(=O)N(C)c2ccc(Oc3ccc(NC(=O)c4ccc(Cl)cc4Cl)c(C(=O)O)c3)cc2)cc1 [11:4] | – | 98 |
| CCCCc1ccc(C(=O)Nc2ccc(Oc3ccc(NC(=O)c4ccc(Cl)cc4Cl)c(C(=O)O)c3)cc2C(=O)O)cc1 [2:5, 5-[3-carboxy-4-(4-chloro-6-chloro-benzamido)-phenyloxy]-2-(4-butylbenz-amido)benzoic acid] | – | 100 |
| CCCCN(c1ccc(Oc2ccc(Nc3ccc(F)c(F)c3)c(C(=O)O)c2)cc1)c1ccc(F)c(F)c1 [24:1, 5-{4-[n-Butyl-(3,4-difluorophenyl)-amino]phenoxy}-2-(3,4-difluoro-phenylamino)benzoic acid] | 93 | – |
| CCCCOc1ccc(S(=O)(=O)Nc2ccc(Oc3ccc(Nc4ccc(F)c(F)c4)cc3)cc2-c2nnn[nH]2)cc1 [Example 32:3, 4-Butoxy-N-[4-[4-(3,4-difluorophenyamino)phenoxy]-2-(tetrazol-5-yl)phenyl]-benzenesulfonamide] | – | 98 |
| CCCCOc1ccc(S(=O)(=O)Nc2ccc(Oc3cccc(C(=O)NS(=O)(=O)c4cccc(Cl)c4F)c3)cc2C(=O)O)cc1 [20:1, 2-(4-Butoxy-benzenesulfonylamino)-5-[3-(3-chloro-2-fluoro-benzene-sulfonylaminocarbonyl)-phenoxy]-benzoic acid] | 99 | – |
| CCCCc1ccc(C(=O)Nc2ccc(Oc3ccc(NS(=O)(=O)c4ccc(S(C)(=O)=O)cc4)cc3)cc2C(=O)O)cc1 [11:8, 2-(4-butylbenzoylamino)-5-[4-(4-methanesulfonylbenzene-sulfonylamino)phenoxy]benzoic acid] | 98 | – |
